Data published in paper PMC8154578, “Sustainable Drug Discovery of Multi-Target-Directed Ligands for Alzheimer’s Disease” (Journal of Medicinal Chemistry, 2021).

Assays:
[1] = system: IL-1β release in LPS-activated BV-2 cells; assay: Secretion of IL-1β in activated BV-2 cells (ELISA); assay type: cell-based, murine; conditions: 0.1 μM for 24 h, then 100 ng/mL LPS for 24 h, compared to LPS-treated cells
[2] = system: TNF-α, IL-1β, iNOS and COX-2 mRNA in LPS-induced BV-2 cells; assay: Expression of proinflammatory cytokines and enzymes in LPS-induced BV-2 cells (real-time PCR); assay type: cell-based, murine; conditions: 0.1 μM for 24 h, then 100 ng/mL LPS for 24 h, compared to LPS
[3] = system: RAW264.7 murine macrophage cell line; set-up: method as in PMID 29890972; conditions: 50 μM; cited from earlier work

Structure (SMILES)	release of IL-1β in the culture medium [1]	COX-2 mRNA expression [2]	IL-1β mRNA expression [2]	TNF-α mRNA expression [2]	iNOS mRNA expression [2]	expression of TNF-α, iNOS, COX-2, NF-κB, IL-1β, and IL-6 [3]
COC(=O)c1c(CCCCCCCCNc2c3c(nc4ccccc24)CCCC3)cccc1OC [Compound 5, Methyl 2-Methoxy-6-(8-((1,2,3,4-tetrahydroacridin-9-yl)amino)octyl)benzoate]	significantly decrease	significantly downregulated	significantly downregulated	not TNF-α	significantly downregulated	
COC(=O)c1c(CCCCCCCCNc2c3c(nc4cc(Cl)ccc24)CCCC3)cccc1OC [Compound 6, Methyl 2-(8-((6-Chloro-1,2,3,4-tetrahydroacridin-9-yl)amino)octyl)-6-methoxybenzoate]	significantly decrease	significantly reduce	significantly reduce	significantly reduce	significantly reduce	
CCCCCCCCCCCCCCCc1cccc(O)c1C(=O)O [Compound 1a, reference compound]		reduced	reduced	reduced only the expression of IL-1β and COX-2	reduced only the expression of IL-1β and COX-2	significantly reduce
